{"source": "patent US5723496A", "about": "“Method for prevention and treatment of harmful effects of intracellular acidosis” (priority 1995, dated 1998)", "key": {"[1]": {"test_system": "mouse brain intracellular acidosis", "assay": "in vivo brain pH before and after 2 min anoxia (Example 4)", "set-up": "species or system mice", "settings": "for brain pH after anoxia / brain pH before anoxia: mice, 3.75 mmole/kg/day i.p., 14 days; for brain pH after anoxia: 2 min anoxia", "protocol": "Using the same experimental procedure as in Example 3, in vivo pH buffering property of guanidinoethanesulfonic acid against the in vivo intracellular acidosis and pH depression caused by anoxia was evaluated.\nAqueous solution of guanidinoethanesulfonic acid (0.3M) was administered daily intraperitoneally to five mice at a dose of 3.75 mmole/kg/day for a period of 14 days. The same number of control mice (5) received intraperitoneal administration of physiological saline solution at a dose of 0.25 ml/animal/day for the same period (14 days).\nAfter the 14 days of administration period of GES or saline, animals were placed in a chamber filled with pure 100% nitrogen for 2 minutes to produce the anoxia state. The pH of the brain was measured in vivo before and after the anoxia by the technique of ^31 P spectroscopy using Omega-7 Tesla Magnetic Resonance Spectrophotometer."}, "[2]": {"assay": "pKa determination", "format": "physicochemical", "settings": "read-out: pKa value (guanidino/amidino moiety)", "protocol": "The mixture was heated to 60° C. and maintained at this temperature until evolution of gas ceased. The solution was cooled on ice until crystals were formed. Following the filtration, the crystals were dissolved in a minimum of distilled water and were recrystallized three times from water. Purity of GES was confirmed by proton NMR spectroscopy at 500 MHz (GE Omega-500). The pKa value of the amino moiety of GES was determined to be 12.48\nGES was prepared as described above. Taurine and methyl isothiopseudourea were purchased from Sigma (St. Louis, Mo.). […] The mixture was heated to 60° C. and maintained at this temperature until evolution of gas ceased. The solution was cooled on ice to crystalize GES, and filtered. The crystals were dissolved in a minimal amount of distilled water and then recrystallized three times from water. The purity of GES was confirmed by proton NMR spectroscopy at 500 MHz (GE Omega-500). The pKa value of the amidino moiety of GES was determined to be 12.48."}, "[3]": {"test_system": "CA1 neurons", "assay": "neuronal density in CA1 region, gerbil forebrain ischemia model", "format": "in vivo", "protocol": "The gerbil forebrain ischemia model of Kirino (REFERENCE, please) was employed as follows.\nAnimals were divided into 4 groups. Two groups of 5 animals each served as control.\nFirst control group was administered daily for fourteen days 0.25 ml of saline. No ischemia was induced.\nSecond control group was administered 0.25 ml of 625 mg/kg of GES daily for fourteen days. No ischemia was induced.\nThird group of ten animals was control ischemia group. This group was administered with 0.25 ml of saline daily for 14 days. Then, the ischemia was induced.\nFourth group of 16 animals was administered 0.25 ml of 625 mg/kg of GES for 14 days, followed by induced ischemia.\nAnimals were anesthetized with 1% halothane, 70% nitrous oxide, and 29% oxygen. The subscalp and rectal temperature were monitored and kept constant at 37° C. using a controlled heating system starting 30 minutes prior to one hour after induction of ischemia. Ischemia in experimental groups (saline and GES ischemia groups) was induced by occlusion of the carotid arteries bilaterally for 5 minutes using small aneurysm clips. Animals in the two control groups (saline and GES controls) received sham surgery but no ischemia was induced.\nSeven days after induced ischemia and recirculation, animals were perfused transcardially with 50 cc of normal saline followed by 500 cc of 5% paraformaldehyde in 0.1M phosphate buffer (pH=7.3), at 100 cm H2 O, under deep pentobarbital anesthesia. Brains were removed and fixed in the same buffered paraformaldehyde solution for 14 days. Sections (6 μm thick) containing the dorsal hippocampus at the level 1.4-1.7 mm posterior to the bregma were prepared on a cryostat from paraffin embedded brain. Sections were stained with hematoxylin and eosin and examined in a double blinded fashion. The number of viable neurons within the CA1 region was counted using an Olympus BH-2 microscope at ×400. The results represents the average of the counts."}, "[4]": {"test_system": "mouse brain", "assay": "mouse brain intracellular pH pre- and post-anoxia (Example 7, 31P NMR)", "format": "in vivo, Adult Swiss mice", "settings": "FIG. 12, sulfate", "protocol": "(§1) Adult Swiss mice (BK-1 male 20 g) purchased from Bantin & Kingman, Fremont, Calif., were used. Each batch consisted of 15 mice. Within each batch, five mice were selected randomly to be in the GES, taurine, or control group. A taurine group was included to serve as additional control.\nA GE Omega CSI-7T (clear bore 120 mm, horizontal, 7T) was used. Mice were anesthetized with pentobarbital, 50 mg/kg, intraperitoneally. Mice were held in a padded holder which was placed in the probe chamber containing a one turn round surface coil (5 mm diameter) tunable to the resonance frequency of proton and ^31 P. To avoid signal contamination, the scalp and temporal muscle were retracted. The animal body temperature was kept at 37° C. using a non-magnetic heating pad. Field homogeneity was maximized by skimming on tissue water proton signals. ^31 P spectra were obtained using a one pulse sequence at 121.67 MHz with a spectral width of 10K and stored into 4K memory blocks (recycle time 1.2 sec). Every 100 transients (2 minutes) were blocked. In order to obtain higher accuracy, preanoxia steady state pH was determined using block average files of three blocks (300 transients, 6 minutes). Anoxia was then introduced by infusion of 100% N2 into the chamber (14 L/min). The first blocks (100 transients, 2 minutes) immediately after N2 introduction were utilized for post anoxia pH measurement. […]"}, "[5]": {"test_system": "anaerobic glycolysis", "assay": "brain lactate after 2.5 min anoxia", "format": "in vivo, Adult Swiss mice", "protocol": "as §1\nBrain lactate levels were determined for mice exposed to 2.5 minutes of anoxia as follows. Animals were exposed to 2.5 minutes of anoxia under pentobarbital anesthesia. Immediately after the exposure, animals were immersed into a liquid nitrogen. The frozen brains were removed by chiseling and extracted as described above. Lactate concentration was determined using the lactate dehydrogenase reaction."}, "[6]": {"settings": "listed as guanidinoethane sulfate"}}, "note": "Entries after “also recorded” stand apart in the source; their conditions may differ. Counter-ions that a name gives are not always drawn."}
{"smiles": "N=C(N)NCCS(=O)(=O)O", "note": "[GES, guanidinoethane sulfate]", "values": [{"measurement": "brain pH after anoxia", "setting": "[1]; [6]", "value": "7.05±0.05"}, {"measurement": "brain pH before anoxia", "setting": "[1]; [6]", "value": "7.16±0.04"}, {"measurement": "brain pH after anoxia", "setting": "[1]; sulfate", "value": 7.05}, {"measurement": "brain pH before anoxia", "setting": "[1]; sulfate", "value": 7.16}, {"measurement": "prevention of decrease in brain pH (in words)", "setting": "[1]; p<0.05, listed as guanidinoethane sulfate", "value": "effectively protects the brain cell from the acidosis damage"}, {"measurement": "prevention of decrease in brain pH (in words)", "setting": "[1]; p<0.05, sulfate", "value": "significantly (p<0.05) prevented the decrease in the cellular pH"}, {"measurement": "pKa", "setting": "[2]", "value": 12.5}, {"measurement": "neuroprotection of CA1 neurons (in words)", "setting": "[3]; 7 days after 5 min bilateral carotid occlusion, sulfate", "value": "significant nueroprotection on CA1 neurons; also recorded: Significantly higher neuronal density"}, {"measurement": "neuronal density in CA1 region, no ischemia", "setting": "[3]; GES control group (n=5), sham surgery", "value": "249 ± 9.4 /mm"}, {"measurement": "CA1 neuronal density, ischemia", "setting": "[3]; GES ischemia group", "value": "61.1±55.11 /mm"}, {"measurement": "neuronal density in CA1 region, ischemia", "setting": "[3]; GES ischemia group (n=16), 5 min occlusion, 7 days, p<0.05", "value": "61.1 ± 55.1 /mm"}, {"measurement": "protective activity by CA1 neuronal density vs saline ischemia", "setting": "[3]; in vivo", "value": "four times higher"}, {"measurement": "brain intracellular pH, pre-anoxia (in words)", "setting": "[4]; 625 mg/kg i.p., two weeks, 625 mg/kg", "value": "detectable shift in intracellular pH, to a more alkaline level; also recorded: clear alkali shift; also recorded: significantly increased brain intracellular pH (alkaline shift)"}, {"measurement": "brain intracellular pH, post-anoxia (in words)", "setting": "[4]", "value": "alkali shift is maintained following 12 minutes of post anoxia; also recorded: remained higher, retaining the degree of alkaline shift"}, {"measurement": "Lactate", "setting": "[5]; Table 4, n = 5, post 2.5 min anoxia", "value": "0.50 ± 0.07", "unit": "mM"}, {"measurement": "lactate levels post 2.5 min anoxia (in words)", "setting": "[5]; among three groups", "value": "essentially identical among the three groups"}]}
